Experimental data taken from patent US20260070911A1, “INHIBITORS OF TAM RECEPTORS” (National Health Research Institutes, priority 2022, published 2026).

What was measured:
Assay type in all cases: biochemical
[1] = tested on: MER/AXL; assay: Dual MER/AXL inhibition (enzymatic); conditions: class for both MER and AXL
Description: (§1) A purified kinase (AXL or MERTK) was incubated with a compound or DMSO (control) for 15 minutes in an assay buffer (25 mM Tri s pH 7.4, 10 mM MgCl2, 4 mM MnCl2, 2 mM DTT, 0.0100 BSA, 0.02% TritonX-100, 0.0100 Brij35 and 0.5 mM Na3VO4 for MERTK; and 40 mM Tri s pH 7.4, 20 mM MgCl2, 2 mM DTT, 0.01% BSA and 0.5 mM Na3VO4 for AXL). […] The mixture was incubated for 3 hours at 30° C. The luminescence was calculated to determine the kinase activity using a Kinase Glo assay kit for MERTK and an ADP-Glo Kinase Assay kit for AXL following the manufacture's instructions (Promega Corp., Madison, Wisconsin).

[2] = target: T1, MERTK (Homo sapiens, UniProt Q12866); assay: MERTK enzymatic assay (Kinase Glo); conditions: purified kinase, ATP 12 μM, read-out: MER Enzymatic Inhibition (%)
T1 sequence (Q12866 21-999): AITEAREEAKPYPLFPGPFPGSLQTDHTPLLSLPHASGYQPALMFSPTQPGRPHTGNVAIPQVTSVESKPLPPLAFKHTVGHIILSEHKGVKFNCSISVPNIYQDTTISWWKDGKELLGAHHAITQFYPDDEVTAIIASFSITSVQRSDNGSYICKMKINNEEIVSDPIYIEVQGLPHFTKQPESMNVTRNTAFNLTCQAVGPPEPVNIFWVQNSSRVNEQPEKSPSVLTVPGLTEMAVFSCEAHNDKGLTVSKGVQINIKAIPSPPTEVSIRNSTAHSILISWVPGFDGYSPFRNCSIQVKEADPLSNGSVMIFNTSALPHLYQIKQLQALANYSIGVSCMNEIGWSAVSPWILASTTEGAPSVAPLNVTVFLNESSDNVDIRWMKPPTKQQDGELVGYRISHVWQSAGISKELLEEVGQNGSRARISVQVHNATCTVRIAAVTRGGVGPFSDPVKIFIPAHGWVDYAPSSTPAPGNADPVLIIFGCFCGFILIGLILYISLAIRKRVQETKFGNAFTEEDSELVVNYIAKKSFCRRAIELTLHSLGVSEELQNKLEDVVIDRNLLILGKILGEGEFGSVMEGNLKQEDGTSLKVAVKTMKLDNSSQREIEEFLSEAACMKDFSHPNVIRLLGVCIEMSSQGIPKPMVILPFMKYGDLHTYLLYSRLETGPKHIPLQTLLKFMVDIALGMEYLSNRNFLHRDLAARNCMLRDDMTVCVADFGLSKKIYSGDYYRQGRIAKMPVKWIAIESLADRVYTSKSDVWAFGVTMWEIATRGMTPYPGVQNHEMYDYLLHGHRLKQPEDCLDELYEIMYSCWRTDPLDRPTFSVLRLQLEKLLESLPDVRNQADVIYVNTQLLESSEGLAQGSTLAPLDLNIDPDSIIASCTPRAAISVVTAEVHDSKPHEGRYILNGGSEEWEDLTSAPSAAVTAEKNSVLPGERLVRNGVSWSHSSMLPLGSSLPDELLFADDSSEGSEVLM
Description: as §1
(§2) A study was conducted to compare exemplary compounds of formula (I) in inhibiting TAM activities, including MERTK, AXL, and TYRO3. An enzymatic assay was used in the study. A purified Kinase (i.e., MERTK, AXL, or TYRO3) was incubated with a compound or DMSO (control) for around 15 minutes in an assay buffer (25 mM Tris pH 7.4, 10 mM MgCl2, 4 mM MnCl2, 2 mM DTT, 0.01% BSA, 0.02% TritonX-100, 0.01% Brij35 and 0.5 mM Na3VO4 for MERTK; 40 mM Tris pH 7.4, 20 mM MgCl2, 2 mM DTT, 0.01% BSA and 0.5 mM Na3VO4 for AXL; and 25 mM Tris pH 7.4, 10 mM MgCl2, 4 mM MnCl2, 2 mM DTT, 0.01% BSA and 0.5 mM Na3VO4 for TYRO3). […] The mixture was incubated for 3 hours at 30° C. The luminescence was calculated to determine the kinase activity using a Kinase Glo assay kit for MERTK and an ADP-Glo Kinase assay kit for AXL and TYRO3 following the manufacture's instructions (Promega). Inhibition rates and half maximal inhibitory concentration (IC50) values were calculated. High percentage inhibition rates and low IC50 values are indicatives of high potency of the test compound.

[3] = target: T2, AXL (Homo sapiens, UniProt P30530); assay: AXL enzymatic assay (ADP-Glo); conditions: purified kinase, ATP 50 μM, read-out: AXL Enzymatic Inhibition (%)
T2 sequence (P30530 26-894): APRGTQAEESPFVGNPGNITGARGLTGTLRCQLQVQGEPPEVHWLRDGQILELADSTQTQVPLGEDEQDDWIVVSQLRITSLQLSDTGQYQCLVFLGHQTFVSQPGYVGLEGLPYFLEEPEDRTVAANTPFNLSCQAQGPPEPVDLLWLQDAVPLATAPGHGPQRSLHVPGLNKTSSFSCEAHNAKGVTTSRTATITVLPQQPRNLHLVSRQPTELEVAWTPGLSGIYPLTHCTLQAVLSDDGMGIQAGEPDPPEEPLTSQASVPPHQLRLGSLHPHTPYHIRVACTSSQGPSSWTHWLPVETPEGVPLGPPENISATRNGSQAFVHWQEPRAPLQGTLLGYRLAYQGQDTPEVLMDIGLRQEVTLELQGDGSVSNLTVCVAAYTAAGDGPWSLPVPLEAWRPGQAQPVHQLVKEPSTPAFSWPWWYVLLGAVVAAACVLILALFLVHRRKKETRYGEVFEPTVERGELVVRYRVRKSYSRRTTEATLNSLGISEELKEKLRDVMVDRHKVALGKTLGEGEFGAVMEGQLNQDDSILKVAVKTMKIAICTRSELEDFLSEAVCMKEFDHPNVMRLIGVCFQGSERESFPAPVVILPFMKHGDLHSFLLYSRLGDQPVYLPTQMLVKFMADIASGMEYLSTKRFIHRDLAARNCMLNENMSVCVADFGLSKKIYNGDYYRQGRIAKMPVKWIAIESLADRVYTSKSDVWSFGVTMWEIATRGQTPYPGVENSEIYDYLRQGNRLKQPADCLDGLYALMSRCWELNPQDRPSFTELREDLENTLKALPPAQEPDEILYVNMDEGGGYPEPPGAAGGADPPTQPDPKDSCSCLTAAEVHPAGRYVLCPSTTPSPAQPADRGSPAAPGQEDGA
Description: as §1, §2

SMILES | IC50 [1] [nM] | IC50 [2] [nM] | IC50 [3] [nM]
Cn1cc(-c2cc3c(Oc4ccc(NC(=O)c5cccn(C6CCCCC6)c5=O)cc4)ncnc3o2)cn1 [Compound 86] | 100 to 50000 | 100 to 50000 | 100 to 50000
Nc1cccc(-c2n[nH]c3ncnc(Oc4ccc(NC(=O)c5cccn(-c6ccc(F)cc6)c5=O)cc4)c23)c1 [Compound 36] | 100 to 50000 | 100 to 50000 | 20 to 100
Cn1cc(-c2oc3ncnc(Oc4ccc(NC(=O)c5cccn(-c6ccc(F)cc6)c5=O)nc4)c3c2-c2cccc(N)c2)cn1 [Compound 52] | 20 to 100 | 20 to 100 | < 20
CC(=O)Nc1cccc(-c2c(-c3cnn(C)c3)oc3ncnc(Oc4ccc(NC(=O)c5cccn(-c6ccc(F)cc6C)c5=O)cc4)c23)c1 [Compound 74] | 100 to 50000 | 100 to 50000 | 100 to 50000
Cn1cc(-c2oc3ncnc(Oc4ccc(NC(=O)c5cccn(-c6ccc(F)cc6)c5=O)cc4)c3c2-c2cccc(N3CCNCC3)c2)cn1 [Compound 33] | < 20 | < 20 | < 20
CC(=O)Nc1cccc(-c2c(-c3cnn(C)c3)oc3ncnc(Oc4ccc(NC(=O)c5cccn(-c6ccc(F)nc6)c5=O)cc4)c23)c1 [Compound 81] | 100 to 50000 | 100 to 50000 | 100 to 50000
CNc1cccc(-c2c[nH]c3ncnc(Oc4ccc(NC(=O)c5cccn(-c6ccc(F)cc6)c5=O)cc4)c23)c1 [Compound 22] | 100 to 50000 | 100 to 50000 | 20 to 100
CC(=O)Nc1cccc(-c2c(-c3cnn(C)c3)oc3ncnc(Oc4ccc(NC(=O)c5cccn(-c6cccc(F)c6)c5=O)cc4)c23)c1 [Compound 57] | 100 to 50000 | 100 to 50000 | < 20
CC(=O)Nc1cccc(-c2c(C)oc3ncnc(Oc4ccc(NC(=O)c5cccn(-c6ccc(F)cc6)c5=O)cc4)c23)c1 [Compound 50] | 100 to 50000 | 100 to 50000 | 20 to 100
CN(C)Cc1cccc(-c2n[nH]c3ncnc(Oc4ccc(NC(=O)c5cccn(-c6ccc(F)cc6)c5=O)cc4)c23)c1 [Compound 88] | 20 to 100 | 20 to 100 | < 20
CCOc1ccn(-c2ccc(F)cc2)c(=O)c1C(=O)Nc1ccc(Oc2ncnc3oc(-c4cnn(C)c4)c(-c4cccc(N)c4)c23)cc1 [Compound 19] | 20 to 100 | 20 to 100 | < 20
Nc1cccc(-c2c(-c3ccccc3)oc3ncnc(Oc4ccc(NC(=O)c5cccn(-c6ccc(F)cc6)c5=O)cc4)c23)c1 [Compound 9] | 100 to 50000 | 100 to 50000 | 100 to 50000
O=C(Nc1ccc(Oc2nc(Cl)nc3[nH]ccc23)cc1)c1cccn(-c2ccc(F)cc2)c1=O [Compound 5] | 100 to 50000 | 100 to 50000 | 100 to 50000
Cn1cc(-c2oc3ncnc(Oc4ccc(NC(=O)c5cccn(-c6ccc(F)cc6)c5=O)cc4)c3c2-c2ccc(N3CCNCC3)cc2)cn1 [Compound 32] | < 20 | < 20 | < 20
Cn1cc(-c2oc3ncnc(Oc4ccc(NC(=O)c5cccn(-c6ccc(F)nc6)c5=O)cc4)c3c2-c2cccc(N)c2)cn1 [Compound 80] | 20 to 100 | 20 to 100 | < 20
CN(C)Cc1cccc(-c2c(-c3cnn(C)c3)oc3ncnc(Oc4ccc(NC(=O)c5cccn(C6CCCCC6)c5=O)cc4)c23)c1 [Compound 84] | 100 to 50000 | 100 to 50000 | 100 to 50000
Cn1cc(-c2oc3ncnc(Oc4ccc(NC(=O)c5cccn(-c6ccc(F)cc6)c5=O)cc4)c3c2-c2cccc(NS(C)(=O)=O)c2)cn1 [Compound 60] | 20 to 100 | 20 to 100 | < 20
Nc1cccc(-c2c[nH]c3ncnc(Nc4ccc(NC(=O)c5cccn(-c6ccc(F)cc6)c5=O)cc4)c23)c1 [Compound 14] | 100 to 50000 | 100 to 50000 | < 20
CC(=O)Nc1cccc(-c2coc3ncnc(Oc4ccc(NC(=O)c5cccn(-c6ccc(F)cc6)c5=O)cc4)c23)c1 [Compound 47] | 100 to 50000 | 100 to 50000 | 20 to 100

The next lines start with the values.

IC50 [1] [nM] | IC50 [2] [nM] | IC50 [3] [nM] | SMILES
100 to 50000 | 100 to 50000 | 100 to 50000 | Cn1cc(C(=O)Nc2ccc(Oc3ncnc4[nH]cc(-c5cccc(N)c5)c34)cc2)c(=O)n1-c1ccc(F)cc1 [Compound 124]
100 to 50000 | 100 to 50000 | 100 to 50000 | CC(=O)Nc1cccc(-c2c(-c3cnn(C)c3)oc3ncnc(Oc4ccc(NC(=O)c5ccc(-c6cccc(F)c6)o5)cc4)c23)c1 [Compound 120]
100 to 50000 | 100 to 50000 | 100 to 50000 | CN(C)Cc1cccc(-c2n[nH]c3ncnc(Oc4ccc(NC(=O)c5cn(C)n(-c6ccc(F)cc6)c5=O)cc4)c23)c1 [Compound 139]
100 to 50000 | 100 to 50000 | 100 to 50000 | COc1nn(-c2ccc(C)cc2)cc1C(=O)Nc1ccc(Oc2ncnc3oc(-c4cnn(C)c4)c(-c4cccc(N)c4)c23)cc1 [Compound 136]
100 to 50000 | 100 to 50000 | 20 to 100 | Cn1cc(-c2oc3ncnc(Oc4ccc(NC(=O)c5ccc(-c6ccc(F)cc6)o5)cc4)c3c2-c2cccc(N)c2)cn1 [Compound 117]
20 to 100 | 20 to 100 | < 20 | CN(C)Cc1cccc(-c2c(-c3cnn(C)c3)oc3ncnc(Oc4ccc(NC(=O)c5cccn(-c6ccc(F)cc6F)c5=O)cc4)c23)c1 [Compound 93]
100 to 50000 | 100 to 50000 | 100 to 50000 | CCNc1cccc(-c2c(-c3cnn(C)c3)oc3ncnc(Oc4ccc(NC(=O)c5cccn(-c6ccc(F)cc6)c5=O)cc4)c23)c1 [Compound 177]
100 to 50000 | 100 to 50000 | 100 to 50000 | Cn1cc(-c2oc3ncnc(Oc4ccc(NC(=O)c5cccn(-c6ccc(F)cc6)c5=O)cc4)c3c2-c2cccc(N3CCCCC3=O)c2)cn1 [Compound 175]
